For 24 molecules, IC50 results are on record in patent US20260085082A1, “KDM1A INHIBITORS FOR THE TREATMENT OF DISEASE” (Imago Biosciences, Inc., priority 2022, published 2026).

The test system of one assay is MV4;11 cells. The assay can be described thus: Cell Titer-Glo Luminescent Cell Viability Assay, cell growth inhibition against MV4;11 cells. The assay is classed as cell-based. The following applies: Homo sapiens. On the procedure: Cell growth inhibition against MV4;11 cells was confirmed for the synthetic compounds. The Cell Titer-Glo Luminescent Cell Viability Assay (Promega, USA) was used to determine the number of viable cells in culture based on quantitation of the ATP present, which signals the presence of metabolically active cells. This assay was run in a 96-well plate format arrayed in a 10-point dose curve, ranging from 0 to 50 μM with 4-fold dilutions for each compound. Cells are seeded on Day 0 at 3750 cells per well. At Day 5, a portion of each well is assayed for viability according to the Cell Titer-Glo protocol. Briefly, cells/plates were centrifuged at 1100×g for 5 minutes. 100 μL of media was removed from each well and replaced with 100 μL of CellTiter-Glo. The plates were shaken at room temperature for 10 minutes and measured on a luminescence plate reader. Another portion of each well from the Day 5 plate is used to seed a new 96 plate containing fresh compound and media set up in the equivalent 10-point dose curve array in order to continue the cell growth inhibition assay for another 5 days. A final timepoint is collected at Day 10 using the Cell Titer-Glo protocol. Luminescence was detected on an EnVision® Multilabel Plate Reader (Perkin Elmer, Waltham, Mass.) and IC50 determination was made using Graph Pad Prism software.

A further assay concerns the target LSD1 (Homo sapiens, UniProt O60341). The assay is described as follows: LSD1 10-dose IC50 fluorescence coupling enzyme assay (HRP/Amplex Red, resorufin). The following applies: 10 M histone H3(1-21)K4me2 peptide substrate; 3-fold serial dilution in duplicate starting at 100 μM. Type of assay: biochemical. Here is the method: Compounds were tested in a 10-dose IC50 mode fluorescence coupling enzyme assay with 3-fold serial dilution in duplicate starting at 100 μM. The production of FAD-dependent H2O2 as a result of demethylase activity of LSD1 on […] histone H3(1-21)K4me2 peptide substrate was measured by coupling with HRP and Amplex Red to yield resorufin (fluorescence measured at Ex/Em=535/590 nm on EnVision, Perkin Elmer).

Where [1] appears, read: MV4-11, MV4;11 cells, Day 10 (re-seeded at Day 5 with fresh compound), 10-point dose curve 0 to 50 μM, read-out: Cell Titer Glo IC50 (10 d).
The mark [2] stands for this setting: MV4-11, 120 h, MV4;11 cells, Day 5, 10-point dose curve 0 to 50 μM, read-out: Cell Titer Glo IC50 (5 d).

The structures appear in SMILES notation. Like-named read-outs stand apart in the source and are kept apart here.

Regarding `COC1CCN(c2ccc(-n3nc(-c4ccc(C#N)c(F)c4)cc3C(=O)N3CCC[C@@H](N)C3)cc2)CC1` [Example 57, (R)-4-(5-(3-aminopiperidine-1-carbonyl)-1-(4-(4-methoxypiperidin-1-yl)phenyl)-1H-pyrazol-3-yl)-2-fluorobenzonitrile 2,2,2-trifluoroacetate], the IC50 (in general, the point on the concentration scale where inhibition reaches its midpoint) in the assay with MV4;11 cells (setting [1]) is 1000 to 10000 nM; at LSD1, less than 500 nM.
Take `COc1ccc(-n2nc(C(=O)N3CCCC(N)C3)cc2-c2ccc(C#N)c(F)c2)cc1` (stereo not shown) [Example 16, 4-(3-(3-Aminopiperidine-1-carbonyl)-1-(4-methoxyphenyl)-1H-pyrazol-5-yl)-2-fluorobenzonitrile]: the IC50 with MV4;11 cells (setting [2]) and on LSD1 was less than 500 nM in each case.
In the case of `CN1CCN(c2ccc(-n3nc(C(=O)N4CCC[C@@H](N)C4)cc3-c3ccc(C#N)c(F)c3)cc2)CC1=O` [Example 50, (R)-4-(3-(3-aminopiperidine-1-carbonyl)-1-(4-(4-methyl-3-oxopiperazin-1-yl)phenyl)-1H-pyrazol-5-yl)-2-fluorobenzonitrile], the IC50 with MV4;11 cells (setting [1]) and at LSD1 was less than 500 nM in each case.
Take `COc1ccc(-n2nc(C(=O)N[C@H]3CCC[C@@H](N)C3)cc2-c2ccc(C#N)c(F)c2)cc1` [Example 22, N-((1S,3R)-3-aminocyclohexyl)-5-(4-cyano-3-fluorophenyl)-1-(4-methoxyphenyl)-1H-pyrazole-3-carboxamide]: the IC50 is 1000 to 10000 nM with MV4;11 cells (setting [2]) and 500 to 1000 nM against LSD1.
For `COc1ccc(-n2nc(-c3ccc(C#N)cc3)cc2C(=O)N2CCCC(N)C2)cc1` (stereo not shown) [Example 4, 4-(5-(3-Aminopiperidine-1-carbonyl)-1-(4-methoxyphenyl)-1H-pyrazol-3-yl)benzonitrile], in that order: 1000 to 10000 nM and less than 500 nM.
For `COc1ccc(-n2nc(NC(=O)C3CCNCC3)cc2-c2ccc(C#N)c(F)c2)cc1` [Example 92, N-(5-(4-cyano-3-fluorophenyl)-1-(4-methoxyphenyl)-1H-pyrazol-3-yl)piperidine-4-carboxamide 2,2,2-trifluoroacetate], in that order: 1000 to 10000 nM and 500 to 1000 nM.
For `COc1ccc(-n2nc(NC(=O)[C@H]3CC[C@H](N)CC3)cc2-c2ccc(C#N)c(F)c2)cc1` [Example 91, (1R,4R)-4-Amino-N-(5-(4-cyano-3-fluorophenyl)-1-(4-methoxyphenyl)-1H-pyrazol-3-yl)cyclohexane-1-carboxamide 2,2,2-trifluoroacetate], in that order: 1000 to 10000 nM and 1000 to 10000 nM.
On to `COc1ccc(-n2nc(C(=O)N3CCC[C@@H](N)C3)cc2-c2ccc(C#N)c(F)c2)cc1` [Example 18, (R)-4-(3-(3-Aminopiperidine-1-carbonyl)-1-(4-methoxyphenyl)-1H-pyrazol-5-yl)-2-fluorobenzonitrile], for which the IC50 in the assay with MV4;11 cells (setting [2]), with MV4;11 cells (setting [1]) and on LSD1 was less than 500 nM in each case.
As for `COc1ccc(-n2nc(NC(=O)[C@H]3CCC[C@H](N)C3)cc2-c2ccc(C#N)c(F)c2)cc1` [Example 90, (1S,3S)-3-amino-N-(5-(4-cyano-3-fluorophenyl)-1-(4-methoxyphenyl)-1H-pyrazol-3-yl)cyclohexane-1-carboxamide 2,2,2-trifluoroacetate], the values for the IC50 in the assay with MV4;11 cells (setting [2]) and against LSD1 were 1000 to 10000 nM and less than 500 nM, respectively.
Take `COc1ccc(-n2nc(C(=O)N3CCCC(NC(=N)N)C3)cc2-c2ccc(C#N)c(F)c2)cc1` (stereo not shown) [Example 29, 1-(1-(5-(4-Cyano-3-fluorophenyl)-1-(4-methoxyphenyl)-1H-pyrazole-3-carbonyl)piperidin-3-yl)guanidine 2,2,2-trifluoroacetate]: the values for the IC50 with MV4;11 cells (setting [2]) and against LSD1 were more than 10000 nM and 1000 to 10000 nM, respectively.
In the same order, the values of `COc1ccc(-n2nc(C(=O)N[C@H]3CCC[C@H](N)C3)cc2-c2ccc(C#N)c(F)c2)cc1` [Example 25, N-((1S,3S)-3-aminocyclohexyl)-5-(4-cyano-3-fluorophenyl)-1-(4-methoxyphenyl)-1H-pyrazole-3-carboxamide 2,2,2-trifluoroacetate] are 1000 to 10000 nM and 1000 to 10000 nM.
For `COc1ccc(-n2nc(C(=O)NC3CCCNC3)cc2-c2ccc(C#N)cc2)cc1` (stereo not shown) [Example 3, 5-(4-Cyanophenyl)-1-(4-methoxyphenyl)-N-(piperidin-3-yl)-1H-pyrazole-3-carboxamide 2,2,2-trifluoroacetate], in that order: 1000 to 10000 nM and 1000 to 10000 nM.
On to `COc1ccc(-n2cc(C(=O)N3CCCC(N)C3)c(-c3ccc(C#N)cc3)n2)cc1` (stereo not shown) [Example 87, 4-(4-(3-aminopiperidine-1-carbonyl)-1-(4-methoxyphenyl)-1H-pyrazol-3-yl)benzonitrile], for which the IC50 in the assay on MV4;11 cells (setting [2]) and against LSD1 was more than 10000 nM throughout.
For `N#Cc1ccc(-c2cc(C(=O)N3CCC[C@@H](N)C3)nn2-c2ccc(N3CCS(=O)(=O)CC3)cc2)cc1F` [Example 71, (R)-4-(3-(3-aminopiperidine-1-carbonyl)-1-(4-(1,1-dioxidothiomorpholino)phenyl)-1H-pyrazol-5-yl)-2-fluorobenzonitrile 2,2,2-trifluoroacetate], the IC50 in the assay with MV4;11 cells (setting [1]) and against LSD1 was less than 500 nM in each case.
On to `Cc1ccc(-n2nc(C(=O)N3CCCC(N)C3)cc2-c2ccc(C#N)c(F)c2)cc1` (stereo not shown) [Example 6, 4-(3-(3-Aminopiperidine-1-carbonyl)-1-(p-tolyl)-1H-pyrazol-5-yl)-2-fluorobenzonitrile], for which the IC50 with MV4;11 cells (setting [2]) and against LSD1 was less than 500 nM in each case.
As to `N#Cc1ccc(-c2cc(C(=O)N3CCC[C@@H](N)C3)nn2-c2ccc(N3CCC(OCCCO)CC3)cc2)cc1F` [Example 69, (R)-4-(3-(3-Aminopiperidine-1-carbonyl)-1-(4-(4-(3-hydroxypropoxy)piperidin-1-yl)phenyl)-1H-pyrazol-5-yl)-2-fluorobenzonitrile 2,2,2-trifluoroacetate], the IC50 in the assay on MV4;11 cells (setting [1]) and on LSD1 was less than 500 nM each time.
In the case of `COc1ccc(-n2nc(NC(=O)[C@@H]3CCNC3)cc2-c2ccc(C#N)c(F)c2)cc1` [Example 94, (R)-N-(5-(4-cyano-3-fluorophenyl)-1-(4-methoxyphenyl)-1H-pyrazol-3-yl)pyrrolidine-3-carboxamide 2,2,2-trifluoroacetate], the results for the IC50 in the assay with MV4;11 cells (setting [2]) and at LSD1 were 1000 to 10000 nM and less than 500 nM, respectively.
For `COc1ccc(-n2nc(C(=O)N3CC(CN)C3)cc2-c2ccc(C#N)c(F)c2)cc1` [Example 32, 4-(3-(3-(Aminomethyl)azetidine-1-carbonyl)-1-(4-methoxyphenyl)-1H-pyrazol-5-yl)-2-fluorobenzonitrile 2,2,2-trifluoroacetate], the IC50 in the assay with MV4;11 cells (setting [2]) and against LSD1 was 1000 to 10000 nM throughout.
For `CN1CCN(c2ccc(-n3nc(C(=O)N4CCC[C@@H](N)C4)cc3-c3ccc(C#N)c(F)c3)c(F)c2)CC1=O` [Example 68, (R)-4-(3-(3-aminopiperidine-1-carbonyl)-1-(2-fluoro-4-(4-methyl-3-oxopiperazin-1-yl)phenyl)-1H-pyrazol-5-yl)-2-fluorobenzonitrile], the IC50 in the assay with MV4;11 cells (setting [1]) and against LSD1 was less than 500 nM in each case.
With `COc1ccc(-n2nc(C(=O)NC3CCCC(N)C3)cc2-c2ccc(C#N)c(F)c2)cc1` (stereo not shown) [Example 20, N-(3-aminocyclohexyl)-5-(4-cyano-3-fluorophenyl)-1-(4-methoxyphenyl)-1H-pyrazole-3-carboxamide 2,2,2-trifluoroacetate], the IC50 with MV4;11 cells (setting [2]) and on LSD1 was 1000 to 10000 nM each time.
Turning to `COc1ccc(-n2nc(C(=O)N3CCC[C@@H](N)C3)cc2-c2ccc(C#N)c(F)c2)cc1F` [Example 36, (R)-4-(3-(3-aminopiperidine-1-carbonyl)-1-(3-fluoro-4-methoxyphenyl)-1H-pyrazol-5-yl)-2-fluorobenzonitrile], the IC50 in the assay on MV4;11 cells (setting [2]) and on LSD1 was less than 500 nM in each case.
As to `COc1ccc(-n2nc(C(=O)N3CCCC(N)C3)cc2-c2ccc(C#N)c(F)c2)cc1F` (stereo not shown) [Example 35, 4-(3-(3-Aminopiperidine-1-carbonyl)-1-(3-fluoro-4-methoxyphenyl)-1H-pyrazol-5-yl)-2-fluorobenzonitrile], the IC50 with MV4;11 cells (setting [2]) and against LSD1 was less than 500 nM throughout.
For `COc1ccc(-n2nc(C(=O)N3CC(N)C3)cc2-c2ccc(C#N)c(F)c2)cc1` [Example 31, 4-(3-(3-Aminoazetidine-1-carbonyl)-1-(4-methoxyphenyl)-1H-pyrazol-5-yl)-2-fluorobenzonitrile 2,2,2-trifluoroacetate], the IC50 in the assay on MV4;11 cells (setting [2]) and on LSD1 was more than 10000 nM each time.
For `COc1ccc(Cn2nc(C(=O)N3CCC[C@@H](N)C3)cc2-c2ccc(C#N)c(F)c2)cc1` [Example 33, (R)-4-(3-(3-aminopiperidine-1-carbonyl)-1-(4-methoxybenzyl)-1H-pyrazol-5-yl)-2-fluorobenzonitrile 2,2,2-trifluoroacetate], the IC50 in the assay with MV4;11 cells (setting [2]) and at LSD1 was less than 500 nM throughout.
